From ChEMBL document CHEMBL1201862, “PubChem BioAssay data set” (2004)
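Results reflect a 48-hour exposure of cells in 96-well plates to compound at five concentrations. GI50 marks 50% less growth.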 Activity calls are given as the source filed them. Rule as the data show it: active = GI50 up to about 1.1 µM and inactive = higher.

Legend:
Assay in all cases: growth of human tumour cells (NCI), 48 h
DMS-114 = test system: DMS-114
HCT-116 = test system: HCT-116
HCT-15 = test system: HCT-15
HOP-92 = test system: HOP-92
HT-29 = test system: HT-29
K562 = test system: K562
KM12 = test system: KM12
OVCAR-3 = test system: OVCAR-3
OVCAR-8 = test system: OVCAR-8
SF-268 = test system: SF-268
SK-MEL-2 = test system: SK-MEL-2
SK-OV-3 = test system: SK-OV-3
U-251 = test system: U-251
UACC-257 = test system: UACC-257
UO-31 = test system: UO-31
A498 = test system: A498
SK-MEL-5 = test system: SK-MEL-5
Hs-578T = test system: Hs-578T
NCI/ADR-RES = test system: NCI/ADR-RES
T47D = test system: T47D

Cc1ccc(NC(=O)C(=O)Cc2nc3ccccc3o2)c(C)c1
GI50 (DMS-114): > 100 µM (inactive) | GI50 (HCT-116): > 100 µM (inactive) | GI50 (HCT-15): > 100 µM | GI50 (HOP-92): > 100 µM (inactive) | GI50 (HT-29): > 100 µM (inactive) | GI50 (K562): > 100 µM (inactive) | GI50 (KM12): > 100 µM (inactive) | GI50 (OVCAR-3): > 100 µM (inactive) | GI50 (OVCAR-8): > 100 µM (inactive) | GI50 (SF-268): > 100 µM (inactive) | GI50 (SK-MEL-2): > 100 µM (inactive) | GI50 (SK-OV-3): > 100 µM (inactive) | GI50 (U-251): > 100 µM (inactive) | GI50 (UACC-257): > 100 µM (inactive) | GI50 (UO-31): > 100 µM (inactive)

O=[PH](O)c1ccsc1
GI50 (A498): > 100 µM (inactive) | GI50 (DMS-114): > 100 µM (inactive) | GI50 (HCT-116): > 100 µM (inactive) | GI50 (HCT-15): > 100 µM | GI50 (HOP-92): 86.5 µM (inactive) | GI50 (HT-29): 55 µM (inactive) | GI50 (K562): > 100 µM (inactive) | GI50 (OVCAR-8): > 100 µM (inactive) | GI50 (SF-268): > 100 µM (inactive) | GI50 (SK-MEL-5): > 100 µM (inactive) | GI50 (SK-OV-3): > 100 µM (inactive) | GI50 (U-251): > 100 µM (inactive) | GI50 (UO-31): > 100 µM (inactive)

COc1ccc(/C=C/CN(C)CCc2ccccc2)cc1OC
GI50 (DMS-114): 77.4 µM (inactive) | GI50 (HCT-116): 26.4 µM (inactive) | GI50 (HCT-15): > 100 µM | GI50 (HOP-92): 4.89 µM (inactive) | GI50 (HT-29): 33.5 µM (inactive) | GI50 (K562): 26.5 µM (inactive) | GI50 (KM12): > 100 µM (inactive) | GI50 (OVCAR-3): 73.3 µM (inactive) | GI50 (OVCAR-8): > 100 µM (inactive) | GI50 (SF-268): > 100 µM (inactive) | GI50 (SK-MEL-2): > 100 µM (inactive) | GI50 (SK-MEL-5): 59.2 µM (inactive) | GI50 (U-251): 86.9 µM (inactive) | GI50 (UACC-257): 36.1 µM (inactive) | GI50 (UO-31): 22.9 µM (inactive)

O=C(CCc1n[nH]c(=S)o1)Nc1cc(Cl)c(Cl)cc1Cl
GI50 (A498): 36.9 µM (inactive) | GI50 (DMS-114): 41.3 µM (inactive) | GI50 (HCT-116): 15.9 µM (inactive) | GI50 (HCT-15): 22.2 µM | GI50 (HOP-92): 48.8 µM (inactive) | GI50 (HT-29): 25.8 µM (inactive) | GI50 (K562): 18.9 µM (inactive) | GI50 (KM12): 87.9 µM (inactive) | GI50 (OVCAR-3): 41.8 µM (inactive) | GI50 (OVCAR-8): 51.2 µM (inactive) | GI50 (SF-268): 26.5 µM (inactive) | GI50 (SK-MEL-5): 50.9 µM (inactive) | GI50 (SK-OV-3): > 100 µM (inactive) | GI50 (U-251): 35.2 µM (inactive) | GI50 (UACC-257): > 100 µM (inactive) | GI50 (UO-31): 68.2 µM (inactive)

C(=N\c1nc2cc3sc(/N=C/c4ccccc4)nc3cc2s1)/c1ccccc1
GI50 (A498): > 95.7 µM (inactive) | GI50 (HCT-116): 44 µM (inactive) | GI50 (HCT-15): 46 µM | GI50 (HOP-92): > 76.9 µM (inactive) | GI50 (HT-29): 37.1 µM (inactive) | GI50 (Hs-578T): > 45.9 µM (inactive) | GI50 (K562): 29.1 µM (inactive) | GI50 (KM12): > 100 µM (inactive) | GI50 (NCI/ADR-RES): > 80.4 µM (inactive) | GI50 (OVCAR-3): > 85.3 µM (inactive) | GI50 (OVCAR-8): > 66.2 µM (inactive) | GI50 (SF-268): > 100 µM (inactive) | GI50 (SK-MEL-2): > 100 µM (inactive) | GI50 (SK-MEL-5): 25.5 µM (inactive) | GI50 (SK-OV-3): > 100 µM (inactive) | GI50 (T47D): > 67.9 µM (inactive) | GI50 (U-251): > 94.6 µM (inactive) | GI50 (UACC-257): > 100 µM (inactive) | GI50 (UO-31): 62.5 µM (inactive)

O=C1CCC2CCc3cccc4oc1c2c34 (stereo not given)
GI50 (A498): > 100 µM (inactive) | GI50 (DMS-114): > 100 µM (inactive) | GI50 (HCT-116): > 100 µM (inactive) | GI50 (HCT-15): > 100 µM | GI50 (HOP-92): 75.5 µM (inactive) | GI50 (HT-29): > 100 µM (inactive) | GI50 (K562): > 100 µM (inactive) | GI50 (OVCAR-3): > 100 µM (inactive) | GI50 (OVCAR-8): > 100 µM (inactive) | GI50 (SK-MEL-5): > 100 µM (inactive) | GI50 (SK-OV-3): > 100 µM (inactive) | GI50 (U-251): > 100 µM (inactive) | GI50 (UACC-257): > 100 µM (inactive)

CCOC(=O)c1cc(Br)c(-c2cc(C)co2)[nH]1
GI50 (A498): > 100 µM (inactive) | GI50 (HCT-116): > 100 µM (inactive) | GI50 (HCT-15): > 100 µM | GI50 (HOP-92): > 100 µM (inactive) | GI50 (HT-29): > 100 µM (inactive) | GI50 (Hs-578T): 84.5 µM (inactive) | GI50 (K562): 69.8 µM (inactive) | GI50 (KM12): 73.3 µM (inactive) | GI50 (NCI/ADR-RES): > 100 µM (inactive) | GI50 (OVCAR-3): > 100 µM (inactive) | GI50 (OVCAR-8): > 100 µM (inactive) | GI50 (SF-268): > 100 µM (inactive) | GI50 (SK-MEL-2): > 100 µM (inactive) | GI50 (SK-MEL-5): 81.3 µM (inactive) | GI50 (SK-OV-3): > 100 µM (inactive) | GI50 (T47D): > 100 µM (inactive) | GI50 (U-251): > 100 µM (inactive) | GI50 (UACC-257): > 100 µM (inactive) | GI50 (UO-31): 66.7 µM (inactive)

N#Cc1ccc(/C=N/NC(=O)CSCC(=O)N/N=C/c2ccc(C#N)cc2)cc1
GI50 (A498): > 100 µM (inactive) | GI50 (HCT-116): > 100 µM (inactive) | GI50 (HCT-15): > 100 µM | GI50 (HOP-92): > 100 µM (inactive) | GI50 (HT-29): > 100 µM (inactive) | GI50 (Hs-578T): > 100 µM (inactive) | GI50 (K562): > 100 µM (inactive) | GI50 (KM12): > 100 µM (inactive) | GI50 (NCI/ADR-RES): > 100 µM (inactive) | GI50 (OVCAR-3): > 100 µM (inactive) | GI50 (OVCAR-8): 53.1 µM (inactive) | GI50 (SF-268): > 100 µM (inactive) | GI50 (SK-MEL-2): > 100 µM (inactive) | GI50 (SK-MEL-5): > 100 µM (inactive) | GI50 (SK-OV-3): > 100 µM (inactive) | GI50 (T47D): > 100 µM (inactive) | GI50 (U-251): 48.1 µM (inactive) | GI50 (UACC-257): > 100 µM (inactive) | GI50 (UO-31): > 100 µM (inactive)

Cc1ccc(S(=O)(=O)n2c(-c3ccccc3)c(-c3ccccc3)c3ccccc32)cc1
GI50 (DMS-114): 20.5 µM (inactive) | GI50 (HCT-116): > 100 µM (inactive) | GI50 (HCT-15): > 100 µM | GI50 (HOP-92): 3.08 µM (inactive) | GI50 (HT-29): > 100 µM (inactive) | GI50 (K562): 64.9 µM (inactive) | GI50 (KM12): > 100 µM (inactive) | GI50 (OVCAR-3): > 100 µM (inactive) | GI50 (OVCAR-8): > 100 µM (inactive) | GI50 (SF-268): > 100 µM (inactive) | GI50 (SK-MEL-2): > 100 µM (inactive) | GI50 (SK-MEL-5): 20.3 µM (inactive) | GI50 (SK-OV-3): 5.32 µM (inactive) | GI50 (U-251): > 100 µM (inactive) | GI50 (UACC-257): > 100 µM (inactive) | GI50 (UO-31): > 100 µM (inactive)
